Test results published in patent publication US6541477B2, “Inhibitors of p38-a kinase” (Scios, Inc., priority 1999, dated 2003).

Experiments:
[1] = molecular target: T1, p38-α kinase (Homo sapiens, UniProt Q16539); settings: 15 μM compound
[2] = molecular target: T1, p38-α kinase; assay: biochemical; settings: for inhibition at 15 µM: read-out: % Inhibition of p38α kinase at 15 μM; for inhibition at 0.2 µM: read-out: percent inhibition of p38α at 200 nM
[3] = Molar refraction (MR) of the ortho substituent as a measure of its size; format: physicochemical; settings: as described by Hansch, J Med Chem 1973
Description: The molar refraction values for the ortho derivatives containing chloro, bromo and methoxy substituents were determined as a measure of the size of the substituent as described by Hansch, C. et al., J Med Chem (1973) 16:1207-1216. A linear correlation between the MR values and percent inhibition of p38α at 200 nM concentrations of the compounds was obtained. […] Thus, it appears that the ability to inhibit p38α kinase is dependent on the size of the ortho substituent. While not intending to be bound by any theory, applicants believe that the bulkier substituents rotate the aroyl moiety out of the plane of the piperidine or piperazine ring.

T1 sequence (Q16539 whole entry): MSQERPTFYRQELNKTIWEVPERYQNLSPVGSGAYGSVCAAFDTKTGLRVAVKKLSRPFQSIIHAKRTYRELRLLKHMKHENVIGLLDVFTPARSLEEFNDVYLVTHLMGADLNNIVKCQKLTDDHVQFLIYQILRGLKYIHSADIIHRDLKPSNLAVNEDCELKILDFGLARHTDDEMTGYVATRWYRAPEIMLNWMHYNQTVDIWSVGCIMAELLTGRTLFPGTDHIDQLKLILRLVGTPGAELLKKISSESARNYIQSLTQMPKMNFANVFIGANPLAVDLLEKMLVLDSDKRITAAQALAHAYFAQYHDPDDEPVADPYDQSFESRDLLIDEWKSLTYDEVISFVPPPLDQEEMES

Row | SMILES | % Inhibition of p38α kinase at 15 μM [1] [%] | other results
1 | O=C(c1cccc(Cl)c1)N1CCC(Cc2ccccc2)CC1 [meta-Cl] | 80 | –
2 | Cc1ccccc1C(=O)N1CCC(Cc2ccccc2)CC1 [compound 11, 1-(2-methylbenzoyl)-4-benzyl piperidine] | – | inhibition at 15 µM [2]: 98%
3 | O=C(c1ccccc1Br)N1CCC(Cc2ccccc2)CC1 [compound 8, 1-(2-bromobenzoyl)-4-benzyl piperidine] | – | inhibition at 15 µM [2]: 99%; inhibition at 0.2 µM [2]: 72%; MR value (molar refraction) [3]: approximately 9
4 | O=C(c1ccc(F)cc1)N1CCC(Cc2ccccc2)CC1 [para-F] | 94 | –
5 | Cc1cccc(C(=O)N2CCC(Cc3ccccc3)CC2)c1 [meta-methyl] | 90 | –
6 | COc1ccccc1C(=O)N1CCC(Cc2ccccc2)CC1 [compound 10, 1-(2-methoxybenzoyl)-4-benzyl piperidine] | – | MR value (molar refraction) [3]: about 8
7 | COc1ccc(C(=O)N2CCC(Cc3ccccc3)CC2)cc1 [compound 2, 1-(4-methoxybenzoyl)-4-benzyl piperidine] | – | IC50 [2]: 605 nM
8 | O=C(c1ccc(Br)cc1)N1CCC(Cc2ccccc2)CC1 [para-Br] | 96 | –
9 | O=C(c1ccc(C(F)(F)F)cc1)N1CCC(Cc2ccccc2)CC1 [para-CF3] | 66 | –
10 | Cc1ccc(C(=O)N2CCC(Cc3ccccc3)CC2)cc1 [para-methyl] | 97 | –
11 | COc1cccc(C(=O)N2CCC(Cc3ccccc3)CC2)c1 [compound 5, 1-(3-methoxybenzoyl)-4-benzyl piperidine] | – | IC50 [2]: 1100 nM
12 | O=C(c1ccccc1Cl)N1CCC(Cc2ccccc2)CC1 [compound 7, 1-(2-chlorobenzoyl)-4-benzyl piperidine] | – | inhibition at 15 µM [2]: 99%; inhibition at 0.2 µM [2]: 52%; MR value (molar refraction) [3]: about 6

Now from value to molecule, other results behind:

Row | % Inhibition of p38α kinase at 15 μM [1] [%] | SMILES | other results
13 | 49 | O=C(c1cccc(C(F)(F)F)c1)N1CCC(Cc2ccccc2)CC1 [meta-CF3] | –
14 | 85 | O=C(c1ccc(Cl)cc1)N1CCC(Cc2ccccc2)CC1 [para-Cl] | –
15 | 92 | O=C(c1cccc(F)c1)N1CCC(Cc2ccccc2)CC1 [meta-F] | –
16 | 74 | O=C(c1cccc(Br)c1)N1CCC(Cc2ccccc2)CC1 [meta-Br] | –
17 | 98 | O=C(c1ccccc1C(F)(F)F)N1CCC(Cc2ccccc2)CC1 [ortho-CF3] | –
18 | 98 | O=C(c1ccccc1F)N1CCC(Cc2ccccc2)CC1 [ortho-F] | –
